4 compounds from patent US8623990B2, “Polyester resin composition” (FUJIFILM Corporation, priority 2010, dated 2014) can be followed below.

The data set can be described thus: Measurement of pKa by absorption spectrum on addition of perchloric acid. In kind it is physicochemical. Conditions: in acetonitrile, 70% perchloric acid (solvent: acetic acid) added dropwise; proton adduct at nitrogen of triazine ring. How it is done: Compound (2) was dissolved in acetonitrile to give an absorbance of 1 and to this solution, 70% perchloric acid (solvent: acetic acid) was added dropwise, thereby varying the pH. At this time, the absorption spectrum of solution was measured and based on the absorbance at λmax, the proportions of a triazine-free form and a proton adduct were calculated at each pH. From the point at which these values became equal, the pKa value was determined. Here, the triazine-free form indicates Compound (2) itself, and the proton adduct indicates a compound resulting from addition of a proton to the nitrogen atom of triazine ring of Compound (2). Compounds (21), (24), (120), (m-2), (m-3), (m-4), (m-21), (m-31), (m-20) and (m-1), and as comparative compounds, (Example A1) and (Example A2) were determined for the pKa value in the same manner. The absorption spectrum was measured using a spectrophotometer, UV-3600 (trade name), manufactured by Shimadzu Corporation, and the pH was measured using a pH meter, HM60G (trade name), manufactured by To a Denpa Kogyo. Incidentally, the absorbance is a value measured at the maximum absorption wavelength of each compound.

In turn, `CCCCC(CC)COC(=O)c1ccc(-c2nc(-c3ccccc3O)nc(-c3ccccc3O)n2)cc1` (stereo not shown) [Compound (21)] had a pKa of -5.
Next, `Oc1ccccc1-c1nc(-c2cccc(Cl)c2)nc(-c2ccccc2O)n1` [(m-4)]: -5.
`CC(CCOC(=O)c1ccc(-c2nc(-c3ccccc3O)nc(-c3ccccc3O)n2)cc1)CC(C)(C)C` (stereo not shown) [(120)]: the pKa is -5.
Next, `CCC(C)CCCCCC(CCCC(C)CC)COC(=O)c1ccc(-c2nc(-c3ccccc3O)nc(-c3ccccc3O)n2)cc1` (stereo not shown) [(24)]: -5.
